Test results reported in PubChem BioAssay AID180 (DTP/NCI, 2004).
Several values for one entry are separate records, joined by “and”; a condition that tells them apart may be missing. Identical values can stand only once.

Test system: BDF1 mice, Adenocarcinoma 755 s.c., tumor weight T/C
Test: NCI In Vivo Anticancer Drug Screen. Data for tumor model Adenocarcinoma 755 (subcutaneous) in B6D2F1 (BDF1) mice
Conditions: endpoint: mean tumor weight, higher = larger tumour
In short: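 Transplantable tumor implanted; mice dosed with compound or vehicle; survival or tumor size recorded; ratio of treated to vehicle control reported.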

With `O=NN1CCN(N=O)CC1` the T/C (dose: 6.21 mg/kg/injection, schedule: Q01DX011 (ip), vehicle: carboxymethylcellulose (CMC)) was 76 % of control, the T/C (dose: 7.36 mg/kg/injection, schedule: Q01DX011 (ip), vehicle: carboxymethylcellulose (CMC)) was 69 % of control and the T/C (dose: 11.75 mg/kg/injection, schedule: Q01DX011 (ip), vehicle: carboxymethylcellulose (CMC)) was 98 % of control and 78 % of control. The T/C (dose: 12.43 mg/kg/injection, schedule: Q01DX011 (ip), vehicle: carboxymethylcellulose (CMC)) was 85 % of control, the T/C (dose: 14.72 mg/kg/injection, schedule: Q01DX011 (ip), vehicle: carboxymethylcellulose (CMC)) was 101 % of control and the T/C (dose: 18.8 mg/kg/injection, schedule: Q01DX011 (ip), vehicle: carboxymethylcellulose (CMC)) was 157 % of control. For the same compound, the T/C (dose: 23.5 mg/kg/injection, schedule: Q01DX011 (ip), vehicle: carboxymethylcellulose (CMC)) was 69 % of control and 83 % of control, the T/C (dose: 23.56 mg/kg/injection, schedule: Q01DX011 (ip), vehicle: carboxymethylcellulose (CMC)) was 88 % of control and the T/C (dose: 24.85 mg/kg/injection, schedule: Q01DX011 (ip), vehicle: carboxymethylcellulose (CMC)) was 56 % of control. The T/C (dose: 29.45 mg/kg/injection, schedule: Q01DX011 (ip), vehicle: carboxymethylcellulose (CMC)) was 99 % of control and 100 % of control, the T/C (dose: 31.33 mg/kg/injection, schedule: Q01DX011 (ip), vehicle: carboxymethylcellulose (CMC)) was 57 % of control and the T/C (dose: 39.26 mg/kg/injection, schedule: Q01DX011 (ip), vehicle: carboxymethylcellulose (CMC)) was 67 % of control. For the same compound, the T/C (dose: 40.0 mg/kg/injection, schedule: Q01DX011 (ip), vehicle: carboxymethylcellulose (CMC)) was 99 % of control, the T/C (dose: 45.0 mg/kg/injection, schedule: Q01DX011 (ip), vehicle: carboxymethylcellulose (CMC)) was 100 % of control and the T/C (dose: 50.0 mg/kg/injection, schedule: Q01DX011 (ip), vehicle: carboxymethylcellulose (CMC)) was 86 % of control. The T/C (dose: 55.0 mg/kg/injection, schedule: Q01DX011 (ip), vehicle: carboxymethylcellulose (CMC)) was 102 % of control.
`CC(=O)OCC1OC(n2cnc3c(=O)[nH]c(=O)[nH]c32)C(OC(C)=O)C1OC(C)=O` (centres undefined) was tested, and the T/C (dose: 30.0 mg/kg/injection, schedule: Q01DX011 (ip), vehicle: saline) was 101 % of control, the T/C (dose: 60.0 mg/kg/injection, schedule: Q01DX011 (ip), vehicle: saline) was 103 % of control and the T/C (dose: 120.0 mg/kg/injection, schedule: Q01DX011 (ip), vehicle: saline) was 86 % of control. For the same compound, the T/C (dose: 240.0 mg/kg/injection, schedule: Q01DX011 (ip), vehicle: saline) was 112 % of control.
With `Cn1c(=O)c2c(nc(Cl)n2CCl)n(C)c1=O` the T/C (dose: 25.0 mg/kg/injection, schedule: Q01DX011 (ip), vehicle: methylcellulose (MC)) was 60 % of control.
In the case of `C[C@]12CCC(=O)C=C1CC[C@@H]1[C@@H]2[C@@H](O)C[C@@]2(C)[C@H]1CC[C@]2(O)C(=O)CO`, the T/C (dose: 2.5 mg/kg/injection, schedule: Q01DX011 (sc), vehicle: steriod suspending solution) is reported as 96 % of control, the T/C (dose: 4.0 mg/kg/injection, schedule: Q01DX011 (sc), vehicle: steriod suspending solution) is reported as 49 % of control and the T/C (dose: 5.0 mg/kg/injection, schedule: Q01DX011 (sc), vehicle: steriod suspending solution) is reported as 110 % of control. The T/C (dose: 8.7 mg/kg/injection, schedule: Q01DX011 (sc), vehicle: steriod suspending solution) was 49 % of control, the T/C (dose: 10.0 mg/kg/injection, schedule: Q01DX011 (sc), vehicle: steriod suspending solution) was 56 % of control and the T/C (dose: 17.5 mg/kg/injection, schedule: Q01DX011 (sc), vehicle: steriod suspending solution) was 32 % of control. For the same compound, the T/C (dose: 20.0 mg/kg/injection, schedule: Q01DX011 (sc), vehicle: steriod suspending solution) was 32 % of control and 34 % of control, the T/C (dose: 35.0 mg/kg/injection, schedule: Q01DX011 (sc), vehicle: steriod suspending solution) was 24 % of control and the T/C (dose: 40.0 mg/kg/injection, schedule: Q01DX011 (sc), vehicle: steriod suspending solution) was 11 % of control. The T/C (dose: 70.0 mg/kg/injection, schedule: Q01DX011 (sc), vehicle: steriod suspending solution) was 8 % of control, the T/C (dose: 80.0 mg/kg/injection, schedule: Q01DX011 (sc), vehicle: steriod suspending solution) was 13 % of control and the T/C (dose: 140.0 mg/kg/injection, schedule: Q01DX011 (sc), vehicle: steriod suspending solution) was 1 % of control.
In the case of `Cc1ccc(CSc2nc(N)nc3nc[nH]c23)cc1C`, the T/C (dose: 31.25 mg/kg/injection, schedule: Q01DX011 (ip), vehicle: methylcellulose (MC)) is reported as 37 % of control, the T/C (dose: 62.5 mg/kg/injection, schedule: Q01DX011 (ip), vehicle: methylcellulose (MC)) is reported as 33 % of control and the T/C (dose: 125.0 mg/kg/injection, schedule: Q01DX011 (ip), vehicle: methylcellulose (MC)) is reported as 15 % of control. The T/C (dose: 250.0 mg/kg/injection, schedule: Q01DX011 (ip), vehicle: methylcellulose (MC)) was 1 % of control and 7 % of control and the T/C (dose: 350.0 mg/kg/injection, schedule: Q01DX011 (ip), vehicle: methylcellulose (MC)) was 5 % of control.
`c1ccc(N2CCSCC2)cc1` was tested, and the T/C (dose: 40.5 mg/kg/injection, schedule: Q01DX011 (ip), vehicle: methylcellulose (MC)) was 16 % of control and 28 % of control.
